# Experimental data from patent publication US9242015B2, “Development and screening of contrast agents for in vivo imaging of Parkinson's disease” (The General Hospital Corporation, priority 2010, dated 2016).
# Tests used:
# Lewy neurites = target: T1, Lewy neurites (Homo sapiens, UniProt P37840); test: Staining of Lewy neurites in post-mortem DLB/PD midbrain tissue; for all read-outs here: key: positive staining with high contrast (++); positive staining with low contrast (+); negative staining (−); assay type: binding; details: for Lewy Neurites Contrast: DLB/PD post-mortem midbrain tissue, dyes in PBS at 500 nM, 5 μM for 30 minutes; for staining on a LN (FIG. 2): DLB post-mortem midbrain tissue
# T1 construct: Post-mortem midbrain tissue from DLB and PD patients was obtained from the HBTRC Brain Bank at McLean Hospital; tissue HBTRC Brain Bank at McLean Hospital; host or cells: formalin-fixed post-mortem human midbrain (DLB and PD patients)
# Method: (§3) Post-mortem midbrain tissue from DLB and PD patients was obtained from the HBTRC Brain Bank at McLean Hospital. Tissue was fixed with formalin and immuno-stained with H3C primary antibody for synuclein and Alexa488 or Cy5 (not shown) conjugated secondary antibody. Immuno-stained tissue was incubated with fluorescent dyes in PBS at concentrations of 500 nM, 2 μM, and 5 μM for 30 minutes. Slides of tissue were imaged with Olympus Microscope at 60× with appropriate filter set.
# AD Plaque = test: Staining of plaques in AD temporal lobe sections; assay type: binding, human; details: 5 μM dye in PBS; note: key: positive (+) staining for both plaques and tangles; did not bind (−) AD pathology
# Method: (§1) Paraffin-embedded formalin-fixed tissue from the temporal lobe of AD patients was obtained through the MA ADRC Brain Bank. Sections were stained with 0.05% Thio S to visualize plaques and NFT. Tissue was then stained with 5 μM dye in PBS. Slides were imaged on an Olympus Microscope at 20×, with a GFP emission filter for Thio S, and appropriate emission ranges for the dyes.
# AD NFT = test: Staining of neurofibrillary tangles (NFT) in AD temporal lobe sections; assay type: binding, human; details: 5 μM dye in PBS; note: key: positive (+) staining for both plaques and tangles; did not bind (−) AD pathology
# Method: as §1
# Lewy bodies = target: T2, Lewy bodies (Homo sapiens, UniProt P37840); test: Staining of Lewy bodies in post-mortem DLB/PD midbrain tissue; for staining on a LB (FIG. 2): key: positive staining with high contrast (++); positive staining with low contrast (+); negative staining (−); assay type: binding; details: for Lewy Bodies Contrast: DLB/PD post-mortem midbrain tissue, dyes in PBS at 500 nM, 5 μM for 30 minutes; for staining on a LB (FIG. 2): DLB post-mortem midbrain tissue
# T2 construct: Post-mortem midbrain tissue from DLB and PD patients was obtained from the HBTRC Brain Bank at McLean Hospital; tissue HBTRC Brain Bank at McLean Hospital; host or cells: formalin-fixed post-mortem human midbrain (DLB and PD patients)
# Method: as §3
# [1] = Blood-brain barrier crossing by in vivo fluorescence imaging after IV injection; details: for BBB Crossing: mouse, in vivo
# Source text: (§2) Wide field fluorescence images were taken with a CCD camera on an Olympus microscope.
# Images were taken with a BIO-RAD MRC1024 multi-photon microscope.
# as §2
# [2] = PD/APP transgenic mouse (18 mo), tail vein, 10 mg/kg, multi-photon microscope; cited from earlier work
compound,measurement,setting,value
"CCN(CC)c1ccc2nc3c4ccccc4c(=O)cc-3oc2c1 [Nile Red, 9-diethylamino-5-benzo[α]phenoxazinone]",Lewy Neurites Contrast,Lewy neurites; 2 μM,−
same,logP,Log P,3.51
same,AD Plaque Contrast,AD Plaque,−
same,AD NFT Contrast,AD NFT,−
same,Lewy Bodies Contrast,Lewy bodies; 2 μM,+
"CCN=c1cc2oc3c4c5c(cc3nc-2c2ccccc12)CCCN5CCC4 [Oxazine 750, reference compound]",staining on a LN (FIG. 2),Lewy neurites; 5 μM,−
same,staining on a LB (FIG. 2),Lewy bodies; 5 μM,−
O=C1NC(=S)NC(=O)C1=C/C=C/C=C/c1c(O)[nH]c(=S)[nH]c1=O [THK-265],Lewy Neurites Contrast,Lewy neurites; 2 μM,−
same,AD Plaque Contrast,AD Plaque,+
same,AD NFT Contrast,AD NFT,−
same,Lewy Bodies Contrast,Lewy bodies; 2 μM,+
same,BBB Crossing,[1],−
"CCN(CC)c1ccc2nc3c(cc(N)c4ccccc43)[o+]c2c1.[O-][Cl+3]([O-])([O-])[O-] [Nile Blue 690 ClO4, 5-amino-9-(diethylamino)-benzo[a]phenoxazin-7-ium perchlorate]",Lewy Neurites Contrast,Lewy neurites; 2 μM,−
same,AD Plaque Contrast,AD Plaque,−
same,AD NFT Contrast,AD NFT,−
same,Lewy Bodies Contrast,Lewy bodies; 2 μM,+ +
[11CH3]Nc1ccc(-c2nc3ccc(O)cc3s2)cc1 [PiB],time to cross the BBB after IV injection,[2],≤ 1 min
"4-[4-[4-(dimethylamino)phenyl]-1,3-butadienyl]-1-ethyl quinolinium [LDS 798]",Lewy Neurites Contrast,Lewy neurites; 2 μM,−
same,Log P,Log P,1.8
same,AD Plaque Contrast,AD Plaque,−
same,AD NFT Contrast,AD NFT,−
same,Lewy Bodies Contrast,Lewy bodies; 2 μM,+ +
same,BBB Crossing,[1],+
same,BBB crossing (wide field fluorescence time course),"[1]; wildtype mouse, IV, 10 mg/kg in 6% DMSO and 1×PBS",crosses BBB and rapidly enters brain
"CN(C)c1ccc(C=CC=CC2=[N+](C)c3ccccc3C2(C)C)cc1.[O-][Cl+3]([O-])([O-])[O-] [LDS 730, 2-[4-[4-(dimethylamino)phenyl]-1,3-butadienyl]-1,3,3-trimethyl-3H-indolium perchlorate]",Lewy Neurites Contrast,Lewy neurites; 2 μM,−
same,AD NFT Contrast,AD NFT,+
same,Lewy Bodies Contrast,Lewy bodies; 2 μM,+
"CN1C(=CC=CC=CC=CC2=[N+](C)c3ccccc3C2(C)C)C(C)(C)c2ccccc21.[O-][Cl+3]([O-])([O-])[O-] [HITC ClO4, 2-[7-(1,3-dihydro-1,3,3-trimethyl-2H-indol-2-ylidene)-1,3,5-heptatrienyl]-1,3,3-trimethyl-3H-indolium perchlorate]",Lewy Neurites Contrast,Lewy neurites; 2 μM,−
same,AD Plaque Contrast,AD Plaque,−
same,AD NFT Contrast,AD NFT,−
same,Lewy Bodies Contrast,Lewy bodies; 2 μM,+
"CCN1C(=CC=CC=Cc2sc3ccccc3[n+]2CC)Sc2ccccc21.[I-] [3-3′-DTDCI, 3,3′-diethylthiadicarbocyanine iodide]",Lewy Neurites Contrast,Lewy neurites; 2 μM,−
same,AD Plaque Contrast,AD Plaque,+
same,AD NFT Contrast,AD NFT,−
same,Lewy Bodies Contrast,Lewy bodies; 2 μM,+
same,BBB Crossing,[1],−
"O=S(=O)([O-])c1ccccc1C=Cc1ccc(-c2ccc(C=Cc3ccccc3S(=O)(=O)[O-])cc2)cc1.[Na+].[Na+] [Stilbene 420, 2,2″-([1,1′-biphenyl]-4.4′-diyldi-2,1-ethenediyl)bis-benzenesulfonic acid disodium salt]",Lewy Neurites Contrast,Lewy neurites; 2 μM,+
same,AD NFT Contrast,AD NFT,+
same,Lewy Bodies Contrast,Lewy bodies; 2 μM,+ +
"CC[n+]1ccc(C=CC=Cc2ccc(N(C)C)cc2)cc1.[O-][Cl+3]([O-])([O-])[O-] [LDS 722, 4-[4-[4-(dimethylamino)phenyl]-1,3-butadienyl]-1-ethyl-pyridinium perchlorate]",staining on a LN (FIG. 2),Lewy neurites; 2 μM,++
same,Lewy Neurites Contrast,Lewy neurites; 2 μM,+
same,logP,Log P,1.04
same,AD Plaque Contrast,AD Plaque,+ +
same,AD NFT Contrast,AD NFT,+ +
same,staining on a LB (FIG. 2),Lewy bodies; 2 μM,++
same,Lewy Bodies Contrast,Lewy bodies; 2 μM,+ +
